In patent US10441687B2, “Wnt/beta-catenin inhibitor-eluting endovascular stent” (ALBERT EINSTEIN COLLEGE OF MEDICINE, INC., priority 2013, dated 2019):
Entries after “also recorded” stand apart in the source; their conditions may differ.

Experiments:
[1] = system: Primary WT mouse aortic smooth muscle cells; assay: alamarBlue cell viability assay in primary mouse aortic smooth muscle cells; format: cell-based; conditions: 48 hours after treatment; 10% FBS/DMEM; increasing concentrations; p<0.0001 vs vehicle (0 uM)
Protocol: FIG. 11. Primary WT mouse aortic smooth muscle cells cultured in 10% FBS/DMEM medium were exposed to increasing concentrations of ICG-001 or vehicle (triplicates for each concentration). Cell viability was measured 48 hours after treatment by alamarBlue Assay. Cell viability (%, relative to vehicle treated cells, which were set as 100%) is plotted against the concentration of ICG-001 (uM).
(§1) In order to test the role of Wnt/beta-catenin signaling in vascular SMC biology, beta-catenin was specifically inactivated in SMCs, using a genetic approach in the mouse. […] After midgestation, dilated arterial vessels without an evident SMC layer were observed (FIG. 7). […] It was determined that increased p53 activity in SMCs partially explains the effects of inactivating beta-catenin (FIG. 9).

p53 = p53 luciferase-based reporter assay in primary vascular SMCs; format: cell-based; conditions: control primary vascular SMCs (Adeno-GFP)
Protocol: FIG. 10. […] The activity of p53 was measured by a luciferase-based reporter assay.
as §1

O=C1[C@H](Cc2ccc(O)cc2)N2C(=O)CCN(C(=O)NCc3ccccc3)[C@H]2CN1Cc1cccc2ccccc12 [ICG-001]
Cell viability (%, relative to vehicle treated cells) [1]: significantly decreases viability of MASMCs in culture in a dose-response manner

Oc1nc(-c2ccc(C(F)(F)F)cc2)nc2c1CSCC2 [XAV939]
p53 activity compared to vehicle (DMSO) (p53; 10 uM XAV939, p<0.05): significant increase in p53 activity
p53 activity (p53; wild type, luciferase-based reporter, dose dependence): induced p53 activity in control primary vascular SMCs (Adeno-GFP) in a dose dependent manner; also recorded: induced p53 activity in wild type vascular SMCs
